Source: ChEMBL document CHEMBL3885861, “Open TG-GATES”

Species: Rattus norvegicus
Assay: Open TG-GATES - Regimen: Single
Type: toxicity, organism-based, Sprague-Dawley
Parameters: regimen Single, gender Male, age 6 weeks
Settings: in vivo, po, 1000 mg/kg, route gavage, dose level High; for APTT / Bas / Eos / Fbg / Hb / Ht / Lym / MCH / MCHC / MCV / Mono / Neu / PT / Plat / RBC / Ret / WBC: tissue Blood; for KIDNEY_L / KIDNEY_R / KIDNEY_TOTAL: tissue Kidney; for LIVER: tissue Liver; for A/G / ALP / ALT / AST / BUN / CRE / Ca / Cl / DBIL / GLC / IP / K / LDH / Na / PL / RALB / TBIL / TC / TG / TP / gamma-GTP: tissue Plasma

O=C(O)c1cc(/N=N/c2ccc(S(=O)(=O)Nc3ccccn3)cc2)ccc1O [SULFASALAZINE] showed a TERMINAL_BW (3 h) of 210.6 g, an APTT (3 h) of 19.5 s and a Bas (3 h) of 0%. The Eos (3 h) was 1%, the Fbg (3 h) was 221.8 mg/dL and the Hb (3 h) was 13.4 g/dL. For the same compound, the Ht (3 h) was 39.6%, the Lym (3 h) was 72.2% and the MCH (3 h) was 21.2 pg. For the same compound, the MCHC (3 h) was 33.9%, the MCV (3 h) was 62.4 fL and the Mono (3 h) was 2.8%. For the same compound, the Neu (3 h) was 23.2%, the PT (3 h) was 12.7 s and the Plat (3 h) was 116.4 x10_4/uL. For the same compound, the RBC (3 h) was 633.8 x10_4/ul, the Ret (3 h) was 7% and the WBC (3 h) was 94.9 x10_2/uL. For the same compound, the KIDNEY_L (3 h) was 1 g, the KIDNEY_R (3 h) was 1 g and the KIDNEY_TOTAL (3 h) was 1.9 g. For the same compound, the LIVER (3 h) was 9.7 g, the A/G (3 h) was 1.5 and the ALP (3 h) was 1059.6 IU/L. The ALT (3 h) was 39.4 IU/L, the AST (3 h) was 67.8 IU/L and the BUN (3 h) was 11.4 mg/dL. It also gave a CRE (3 h) of 0.4 mg/dL, a Ca (3 h) of 10.7 mg/dL and a Cl (3 h) of 102.4 meq/L. For the same compound, the DBIL (3 h) was 0.064 mg/dL, the GLC (3 h) was 196.6 mg/dL and the IP (3 h) was 9.4 mg/dL. The K (3 h) was 4 meq/L, the LDH (3 h) was 203.6 IU/L and the Na (3 h) was 139.6 meq/L. For the same compound, the PL (3 h) was 139.4 mg/dL, the RALB (3 h) was 3.4 g/dL and the TBIL (3 h) was 0.1 mg/dL. The TC (3 h) was 76 mg/dL, the TG (3 h) was 46.2 mg/dL and the TP (3 h) was 5.6 g/dL. The gamma-GTP (3 h) was 1 IU/L, the TERMINAL_BW (6 h) was 208.9 g and the APTT (6 h) was 18.8 s. The Bas (6 h) was 0%, the Eos (6 h) was 0.8% and the Fbg (6 h) was 226 mg/dL. The Hb (6 h) was 13.1 g/dL, the Ht (6 h) was 38.3% and the Lym (6 h) was 76.4%. It also gave an MCH (6 h) of 21.3 pg, an MCHC (6 h) of 34.2% and an MCV (6 h) of 62.2 fL. For the same compound, the Mono (6 h) was 2.2%, the Neu (6 h) was 19.2% and the PT (6 h) was 12.7 s. The Plat (6 h) was 120.4 x10_4/uL, the RBC (6 h) was 616.4 x10_4/ul and the Ret (6 h) was 7.3%. It also gave a WBC (6 h) of 73.5 x10_2/uL, a KIDNEY_L (6 h) of 0.9 g and a KIDNEY_R (6 h) of 1 g. The KIDNEY_TOTAL (6 h) was 1.9 g, the LIVER (6 h) was 9 g and the A/G (6 h) was 1.5. It also gave an ALP (6 h) of 928.2 IU/L, an ALT (6 h) of 31.4 IU/L and an AST (6 h) of 66.4 IU/L. For the same compound, the BUN (6 h) was 8.4 mg/dL, the CRE (6 h) was 0.4 mg/dL and the Ca (6 h) was 10.5 mg/dL. For the same compound, the Cl (6 h) was 103.2 meq/L, the DBIL (6 h) was 0.066 mg/dL and the GLC (6 h) was 190.8 mg/dL. It also gave an IP (6 h) of 9.4 mg/dL, a K (6 h) of 4 meq/L and an LDH (6 h) of 207.8 IU/L. It also gave a Na (6 h) of 141.4 meq/L, a PL (6 h) of 144 mg/dL and an RALB (6 h) of 3.4 g/dL. It also gave a TBIL (6 h) of 0.1 mg/dL, a TC (6 h) of 75.4 mg/dL and a TG (6 h) of 59 mg/dL. For the same compound, the TP (6 h) was 5.6 g/dL, the gamma-GTP (6 h) was 1 IU/L and the TERMINAL_BW (9 h) was 206.9 g. For the same compound, the APTT (9 h) was 18.8 s, the Bas (9 h) was 0% and the Eos (9 h) was 0.8%. It also gave a Fbg (9 h) of 222.2 mg/dL, a Hb (9 h) of 13.2 g/dL and a Ht (9 h) of 38.4%. For the same compound, the Lym (9 h) was 72.2%, the MCH (9 h) was 21.9 pg and the MCHC (9 h) was 34.4%. For the same compound, the MCV (9 h) was 63.7 fL, the Mono (9 h) was 1.2% and the Neu (9 h) was 25.2%. The PT (9 h) was 12.8 s, the Plat (9 h) was 110.1 x10_4/uL and the RBC (9 h) was 603.4 x10_4/ul. For the same compound, the Ret (9 h) was 7.2%, the WBC (9 h) was 68.2 x10_2/uL and the KIDNEY_L (9 h) was 0.9 g. It also gave a KIDNEY_R (9 h) of 1 g, a KIDNEY_TOTAL (9 h) of 1.9 g and an LIVER (9 h) of 8 g. It also gave an A/G (9 h) of 1.5, an ALP (9 h) of 772.2 IU/L and an ALT (9 h) of 31.4 IU/L. It also gave an AST (9 h) of 67.4 IU/L, a BUN (9 h) of 8.6 mg/dL and a CRE (9 h) of 0.4 mg/dL. It also gave a Ca (9 h) of 10.4 mg/dL, a Cl (9 h) of 103.2 meq/L and a DBIL (9 h) of 0.06 mg/dL. For the same compound, the GLC (9 h) was 210.6 mg/dL, the IP (9 h) was 8.6 mg/dL and the K (9 h) was 3.5 meq/L. The LDH (9 h) was 195.4 IU/L, the Na (9 h) was 141.4 meq/L and the PL (9 h) was 137.2 mg/dL. The RALB (9 h) was 3.5 g/dL, the TBIL (9 h) was 0.1 mg/dL and the TC (9 h) was 72.6 mg/dL. The TG (9 h) was 23 mg/dL, the TP (9 h) was 5.8 g/dL and the gamma-GTP (9 h) was 1.4 IU/L. For the same compound, the TERMINAL_BW (24 h) was 214 g, the APTT (24 h) was 17.5 s and the Bas (24 h) was 0%. For the same compound, the Eos (24 h) was 0.8%, the Fbg (24 h) was 216.2 mg/dL and the Hb (24 h) was 13.5 g/dL. It also gave a Ht (24 h) of 39.4%, a Lym (24 h) of 82.6% and an MCH (24 h) of 21.7 pg. For the same compound, the MCHC (24 h) was 34.4%, the MCV (24 h) was 63 fL and the Mono (24 h) was 2.4%. The Neu (24 h) was 13%, the PT (24 h) was 13.2 s and the Plat (24 h) was 135.4 x10_4/uL. The RBC (24 h) was 624 x10_4/ul, the Ret (24 h) was 6.2% and the WBC (24 h) was 85.9 x10_2/uL. It also gave a KIDNEY_L (24 h) of 1 g, a KIDNEY_R (24 h) of 1 g and a KIDNEY_TOTAL (24 h) of 1.9 g. It also gave an LIVER (24 h) of 8.6 g, an A/G (24 h) of 1.5 and an ALP (24 h) of 925.2 IU/L. For the same compound, the ALT (24 h) was 40.6 IU/L, the AST (24 h) was 69.8 IU/L and the BUN (24 h) was 13.8 mg/dL. For the same compound, the CRE (24 h) was 0.4 mg/dL, the Ca (24 h) was 10.7 mg/dL and the Cl (24 h) was 100.6 meq/L. It also gave a DBIL (24 h) of 0.076 mg/dL, a GLC (24 h) of 191 mg/dL and an IP (24 h) of 8.8 mg/dL. It also gave a K (24 h) of 3.8 meq/L, an LDH (24 h) of 232 IU/L and a Na (24 h) of 139.6 meq/L. It also gave a PL (24 h) of 142.4 mg/dL, an RALB (24 h) of 3.4 g/dL and a TBIL (24 h) of 0.1 mg/dL. For the same compound, the TC (24 h) was 79.8 mg/dL, the TG (24 h) was 52.8 mg/dL and the TP (24 h) was 5.7 g/dL. It also gave a gamma-GTP (24 h) of 1 IU/L.
